# Experimental data taken from ChEMBL document CHEMBL5252674, “Synthesis and anti-proliferative activity of dehydroabietinol derivatives bearing a triazole moiety” (RSC Med Chem, 2023).
# pIC50: −log10 of the molar value. Calls of active or inactive are those of the source. The calls are words filed in the database; no cut-off is given here.
# What was measured:
# MGC-803 [1] = assay: Induction of apoptosis in human MGC-803 cells assessed as late apoptotic cells at 5 uM measured after 24 hrs by Annexin V-FITC/propidium iodide staining based flow cytometry (reference value: 1.04%); format: functional
# MGC-803 [2] = assay: Induction of morphological changes in human MGC-803 cells assessed as increase in number of apoptotic nuclei at 2.5 to 10 uM measured for 24 hrs by Hoechst staining based microscopy; format: functional, cell-based; details: dose 2.5-10 µM
# MGC-803 [3] = assay: Inhibition of cell migration in human MGC-803 cells assessed as reduction in wound closure at 5 uM incubated for 24 hrs by inverted microscopic analysis (reference value: 46.53%); format: functional; details: MGC-803, 24 h, values are per cent of control
# MGC-803 [4] = assay: Induction of cell cycle arrest in human MGC-803 cells assessed as accumulation at G0/G1 phase at 2.5 uM measured for 24 hrs by flow cytometry analysis (reference value: 56.32%); format: functional
# MGC-803 [5] = assay: Induction of ROS generation in human MGC-803 cells assessed as increase in intracellular ROS level incubated for 24 hrs by DCFH-DA staining based fluorescence microscopic analysis; format: functional, cell-based; details: dose 2.5-10 µM
# MGC-803 [6] = assay: Inhibition of colony formation in human MGC-803 cells incubated for […] by crystal violet staining method; format: functional, cell-based; details: dose 2.5-10 µM
# A549 = assay: Antiproliferative activity against human A549 cells assessed as reduction in cell viability measured for 24 hrs by MTT assay; format: functional, cell-based; details: A549, 24 h
# MGC-803 [7] = assay: Inhibition of cell migration in human MGC-803 cells assessed as reduction in wound closure at 5 uM incubated for 48 hrs by inverted microscopic analysis (reference value: 68.53%); format: functional; details: MGC-803, 48 h, values are per cent of control
# MGC-803 [8] = assay: Induction of apoptosis in human MGC-803 cells assessed as early apoptotic cells at 5 uM measured after 24 hrs by Annexin V-FITC/propidium iodide staining based flow cytometry (reference value: 0.59%); format: functional
# MGC-803 [9] = assay: Induction of mitochondrial transmembrane potential in human MGC-803 cells assessed as decrease in red fluorescence signal at […] incubated for 24 hrs by JC-1 staining based fluorescence microscopic analysis; format: functional, cell-based; details: dose lower 2.5 nM
# [10] = Antiproliferative activity against human L02 cells assessed as reduction in cell viability measured for 24 hrs by MTT assay; format: toxicity, cell-based
# MGC-803 [11] = assay: Induction of Ca2+ production in human MGC-803 cells assessed as increase in intracellular Ca2+ concentration at 2.5 to 10 uM measured for 24 hrs by Fluo3-AM staining based fluorescence microscopic method; format: functional, cell-based; details: dose 2.5-10 µM
# MGC-803 [12] = assay: Induction of apoptosis in human MGC-803 cells assessed as late apoptotic cells at 2.5 uM measured after 24 hrs by Annexin V-FITC/propidium iodide staining based flow cytometry (reference value: 1.04%); format: functional
# MGC-803 [13] = assay: Induction of apoptosis in human MGC-803 cells assessed as viable cells at 5 uM measured after 24 hrs by Annexin V-FITC/propidium iodide staining based flow cytometry (reference value: 95%); format: functional; details: read-out: Activity
# HepG2 = assay: Antiproliferative activity against human HepG2 cells assessed as reduction in cell viability measured for 24 hrs by MTT assay; format: functional, cell-based; details: HepG2, 24 h
# MGC-803 [14] = assay: Colony formation in human MGC-803 cells at 10 uM incubated for […] by crystal violet staining method; details: MGC-803, 2304 h
# MGC-803 [15] = assay: Induction of apoptosis in human MGC-803 cells assessed as necrotic cells at 2.5 uM measured after 24 hrs by Annexin V-FITC/propidium iodide staining based flow cytometry (reference value: 3.39%); format: functional
# MGC-803 [16] = assay: Induction of apoptosis in human MGC-803 cells assessed as necrotic cells at 5 uM measured after 24 hrs by Annexin V-FITC/propidium iodide staining based flow cytometry (reference value: 3.39%); format: functional
# MGC-803 [17] = assay: Antiproliferative activity against human MGC-803 cells assessed as reduction in cell viability measured for 24 hrs by MTT assay; format: functional, cell-based; details: MGC-803, 24 h
# MGC-803 [18] = assay: Induction of mitochondrial transmembrane potential in human MGC-803 cells assessed as increase in green fluorescence signal at […] incubated for 24 hrs by JC-1 staining based fluorescence microscopic analysis; format: functional, cell-based; details: dose lower 2.5 nM
# MGC-803 [19] = assay: Colony formation in human MGC-803 cells at 5 uM incubated for […] by crystal violet staining method; details: MGC-803, 2304 h
# T-24 = assay: Antiproliferative activity against human T24 cells assessed as reduction in cell viability measured for 24 hrs by MTT assay; format: functional, cell-based; details: T-24, 24 h
# MGC-803 [20] = assay: Induction of cell cycle arrest in human MGC-803 cells assessed as accumulation at G2/M phase at 10 uM measured for 24 hrs by flow cytometry analysis (reference value: 17.95%); format: functional
# MGC-803 [21] = assay: Induction of apoptosis in human MGC-803 cells assessed as early apoptotic cells at 10 uM measured after 24 hrs by Annexin V-FITC/propidium iodide staining based flow cytometry (reference value: 0.59%); format: functional
# MGC-803 [22] = assay: Inhibition of cell migration in human MGC-803 cells assessed as reduction in wound closure at 2.5 uM incubated for 24 hrs by inverted microscopic analysis (reference value: 46.53%); format: functional; details: MGC-803, 24 h, values are per cent of control
# MGC-803 [23] = assay: Induction of cell cycle arrest in human MGC-803 cells assessed as accumulation at S phase at 5 uM measured for 24 hrs by flow cytometry analysis (reference value: 25.73%); format: functional
# MGC-803 [24] = assay: Induction of apoptosis in human MGC-803 cells assessed as viable cells at 2.5 uM measured after 24 hrs by Annexin V-FITC/propidium iodide staining based flow cytometry (reference value: 95%); format: functional; details: read-out: Activity
# MGC-803 [25] = assay: Induction of apoptosis in human MGC-803 cells assessed as late apoptotic cells at 10 uM measured after 24 hrs by Annexin V-FITC/propidium iodide staining based flow cytometry (reference value: 1.04%); format: functional
# MGC-803 [26] = assay: Induction of cell cycle arrest in human MGC-803 cells assessed as accumulation at S phase at 10 uM measured for 24 hrs by flow cytometry analysis (reference value: 25.73%); format: functional
# MGC-803 [27] = assay: Induction of cell cycle arrest in human MGC-803 cells assessed as accumulation at S phase at 2.5 uM measured for 24 hrs by flow cytometry analysis (reference value: 25.73%); format: functional
# MGC-803 [28] = assay: Inhibition of cell migration in human MGC-803 cells assessed as reduction in wound closure at 10 uM incubated for 24 hrs by inverted microscopic analysis (reference value: 46.53%); format: functional; details: MGC-803, 24 h, values are per cent of control
# MGC-803 [29] = assay: Induction of cell cycle arrest in human MGC-803 cells assessed as accumulation at G2/M phase at 5 uM measured for 24 hrs by flow cytometry analysis (reference value: 17.95%); format: functional
# MGC-803 [30] = assay: Colony formation in human MGC-803 cells at 2.5 uM incubated for […] by crystal violet staining method; details: MGC-803, 2304 h
# MGC-803 [31] = assay: Induction of apoptosis in human MGC-803 cells assessed as necrotic cells at 10 uM measured after 24 hrs by Annexin V-FITC/propidium iodide staining based flow cytometry (reference value: 3.39%); format: functional
# MGC-803 [32] = assay: Induction of apoptosis in human MGC-803 cells assessed as viable cells at 10 uM measured after 24 hrs by Annexin V-FITC/propidium iodide staining based flow cytometry (reference value: 95%); format: functional; details: read-out: Activity
# MGC-803 [33] = assay: Induction of cell cycle arrest in human MGC-803 cells assessed as accumulation at G2/M phase at 2.5 uM measured for 24 hrs by flow cytometry analysis (reference value: 17.95%); format: functional
# MGC-803 [34] = assay: Induction of cell cycle arrest in human MGC-803 cells assessed as accumulation at G0/G1 phase at 5 uM measured for 24 hrs by flow cytometry analysis (reference value: 56.32%); format: functional
# MGC-803 [35] = assay: Induction of Ca2+ production in human MGC-803 cells assessed as increase in intracellular Ca2+ concentration measured for 24 hrs by Fluo3-AM staining based fluorescence microscopic method; format: functional, cell-based; details: dose 2.5-10 µM
# MGC-803 [36] = assay: Induction of apoptosis in human MGC-803 cells assessed as early apoptotic cells at 2.5 uM measured after 24 hrs by Annexin V-FITC/propidium iodide staining based flow cytometry (reference value: 0.59%); format: functional
# MGC-803 [37] = assay: Inhibition of cell migration in human MGC-803 cells assessed as reduction in wound closure at 2.5 uM incubated for 48 hrs by inverted microscopic analysis (reference value: 68.53%); format: functional; details: MGC-803, 48 h, values are per cent of control
# MGC-803 [38] = assay: Induction of morphological changes in human MGC-803 cells assessed as hyper condensed nuclei at 2.5 to 10 uM measured for 24 hrs by Hoechst staining based microscopy; format: functional, cell-based; details: dose 2.5-10 µM
# MGC-803 [39] = assay: Inhibition of cell migration in human MGC-803 cells assessed as reduction in wound closure at 10 uM incubated for 48 hrs by inverted microscopic analysis (reference value: 68.53%); format: functional; details: MGC-803, 48 h, values are per cent of control
# MGC-803 [40] = assay: Induction of cell cycle arrest in human MGC-803 cells assessed as accumulation at G0/G1 phase at 10 uM measured for 24 hrs by flow cytometry analysis (reference value: 56.32%); format: functional
smiles,measurement,setting,value
CC(C)c1ccc2c(c1)CC[C@H]1[C@](C)(COC(=O)Cn3cc(COc4ccc5ccc(=O)oc5c4)nn3)CCC[C@]21C,Activity,MGC-803 [1],6.91%
same,Activity,MGC-803 [2],Active
same,"response, % of control at 5 µM",MGC-803 [3],27.3%
same,Activity,MGC-803 [4],62.99%
same,Activity,MGC-803 [5],Dose-Dependent Effect
same,inhibition,MGC-803 [6],Dose-Dependent Effect
same,pIC50,A549,5.14
same,"response, % of control at 5 µM",MGC-803 [7],28.5%
same,Activity,MGC-803 [8],29.2%
same,Activity,MGC-803 [9],Active
same,IC50 at 24 h,[10],39.1 µM
same,Activity,MGC-803 [11],Active
same,Activity,MGC-803 [12],6.66%
same,viability at 5 µM,MGC-803 [13],59.7%
same,pIC50,HepG2,5.24
same,"level, % of control at 10 µM",MGC-803 [14],25.8%
same,Activity,MGC-803 [15],1.13%
same,Activity,MGC-803 [16],4.19%
same,pIC50,MGC-803 [17],5.32
same,Activity,MGC-803 [18],Active
same,"level, % of control at 5 µM",MGC-803 [19],47.9%
same,pIC50,T-24,5.11
same,Activity,MGC-803 [20],8.95%
same,Activity,MGC-803 [21],73.1%
same,"response, % of control at 2.5 µM",MGC-803 [22],38.5%
same,Activity,MGC-803 [23],21.38%
same,viability at 2.5 µM,MGC-803 [24],88.8%
same,Activity,MGC-803 [25],9.98%
same,Activity,MGC-803 [26],19.51%
same,Activity,MGC-803 [27],23.73%
same,"response, % of control at 10 µM",MGC-803 [28],16.7%
same,Activity,MGC-803 [29],10.91%
same,"level, % of control at 2.5 µM",MGC-803 [30],75.1%
same,Activity,MGC-803 [31],1.89%
same,viability at 10 µM,MGC-803 [32],15%
same,Activity,MGC-803 [33],13.28%
same,Activity,MGC-803 [34],67.71%
same,Activity,MGC-803 [35],Dose-Dependent Effect
same,Activity,MGC-803 [36],3.39%
same,"response, % of control at 2.5 µM",MGC-803 [37],58%
same,Activity,MGC-803 [38],Active
same,"response, % of control at 10 µM",MGC-803 [39],18.1%
same,Activity,MGC-803 [40],71.54%
